Data set [1] concerns TRZAS. Description: Greenhouse trial, PE application with different irrigation variations (test method 6). It counts as in vivo, Triticum aestivum, summer wheat. To be noted: g of AS/ha: (A) 120, (B) 1200, (C) 90, mixture 120 + 1200 + 90. As for the experimental part:
(§1) In the standard design of the test, seeds of various broad-leaved weed and weed grass biotypes (origins) were sown in a 8-13 cm diameter pot filled with natural soil of a standard field soil (loamy silt; non-sterile) and covered with a covering soil layer of about 1 cm. The pots were then cultivated in a greenhouse (12-16 h of light, temperature day 20-22° C., night 15-18° C.) until the time of application. The pots were treated on a laboratory track sprayer with spray liquors comprising the compositions according to the invention, mixtures of the prior art or components used individually. Application of the active compounds or active compound combinations formulated as WG, WP, EC or otherwise was carried out at the appropriate growth stages of the plants. The application rate for the spray application was 100-600 l of water/ha. After the treatment, the plants were returned to the greenhouses.
(§2) About 3 weeks after the application, the soil action or/and foliar action was assessed visually according to a scale of 0-100% in comparison to an untreated comparative group: 0%=no noticeable effect compared to the untreated comparative group; 100%=full effect compared to the untreated comparative group.
(§3) (notes: the term “seeds” also includes vegetative propagation forms such as, for example, rhizome pieces; abbreviations used: h light=hours of illumination, g of AS/ha=gram of active substance per hectare, l/ha=liter per hectare, S=sensitive, R=resistant) • 1. Pre-emergence action against weeds: seeds of various broad-leaved weed and weed grass biotypes (origins) were sown in a 8-13 cm diameter pot filled with natural soil of a standard field soil (loamy silt; non-sterile) and covered with a covering soil layer of about 1 cm. The pots were then cultivated in a greenhouse (12-16 h of light, temperature day 20-22° C., night 15-18° C.) until the time of application. The pots were treated at the BBCH stage 00-10 of the seeds/plants on a laboratory track sprayer with spray liquors comprising the compositions according to the invention, mixtures or components used individually, as WG, WP, EC or other formulations. The application rate for the spray application was 100-600 l of water/ha. After the treatment, the plants were returned to the greenhouses and, when required, treated with fertilizer and watered. • 2. Post-emergence action against weeds: seeds of various broad-leaved weed and weed grass biotypes (origins) were sown in a 8-13 cm diameter pot filled with natural soil of a standard field soil (loamy silt; non-sterile) and covered with a covering soil layer of about 1 cm. The pots were then cultivated in a greenhouse (12-16 h of light, temperature day 20-22° C., night 15-18° C.) until the time of application. […]

In data set [2] the test system is STEME. Nature of the data set: Greenhouse trial, activity with different soil types. To be noted: IU/EC73 soil versus IU soil; g of AS/ha: (A) 120, (B) 1200, (C) 90, mixture 120 + 1200 + 90. Type of data set: in vivo, Stellaria media. As for the experimental part: as §1, §2
(§4) (notes: the term “seeds” also includes vegetative propagation forms such as, for example, rhizome pieces; abbreviations used: h light=hours of illumination, g of AS/ha=gram of active substance per hectare, l/ha=liter per hectare, S=sensitive, R=resistant) • 1. Pre-emergence action against weeds: seeds of various broad-leaved weed and weed grass biotypes (origins) were sown in a 8-13 cm diameter pot filled with natural soil of a standard field soil (loamy silt; non-sterile) and covered with a covering soil layer of about 1 cm. The pots were then cultivated in a greenhouse (12-16 h of light, temperature day 20-22° C., night 15-18° C.) until the time of application. The pots were treated at the BBCH stage 00-10 of the seeds/plants on a laboratory track sprayer with spray liquors comprising the compositions according to the invention, mixtures or components used individually, as WG, WP, EC or other formulations. The application rate for the spray application was 100-600 l of water/ha. After the treatment, the plants were returned to the greenhouses and, when required, treated with fertilizer and watered. • 2. Post-emergence action against weeds: seeds of various broad-leaved weed and weed grass biotypes (origins) were sown in a 8-13 cm diameter pot filled with natural soil of a standard field soil (loamy silt; non-sterile) and covered with a covering soil layer of about 1 cm. The pots were then cultivated in a greenhouse (12-16 h of light, temperature day 20-22° C., night 15-18° C.) until the time of application. The pots were treated at various BBCH stages between 11-25 of the seeds/plants, i.e. generally between two to three weeks after the start of the cultivation, on a laboratory track sprayer with spray liquors comprising the compositions according to the invention, mixtures or components used individually, as WG, WP, EC or other formulations. The application rate for the spray application was 100-600 l of water/ha. After the treatment, the plants were returned to the greenhouses and, when required, treated with fertilizer and watered. • 3. Selective pre-emergence action: seeds of various crop species (origins) were sown in a 8-13 cm diameter pot filled with natural soil of a standard field soil (loamy silt; non-sterile) and covered with a covering soil layer of about 1 cm. The pots were then cultivated in a greenhouse (12-16 h of light, temperature day 20-22° C., night 15-18° C.) until the time of application. The pots were treated at the BBCH stage 00-10 of the seeds/plants on a laboratory track sprayer with spray liquors comprising the compositions according to the invention, mixtures or components used individually, as WG, WP, EC or other formulations. The application rate for the spray application was 100-600 l of water/ha. […]

In data set [3] the test system is ALOMY. Nature of the data set: Greenhouse trial, PE application on sensitive and resistant biotypes (test method 8). Type of data set: in vivo, Alopecurus myosuroides. As to conditions: g of AS/ha: (A) 90, (B) 1200, (C) 90, mixture 90 + 1200 + 90, iodosulfuron 10; for activity ALOMY resistant (visual, scale 0-100%): resistant biotype; for activity ALOMY sensitive (visual, scale 0-100%): sensitive biotype. As for the experimental part:
as §1, §2, §4

Data set [4] relates to HORVS. Description: Greenhouse trial, PO application, selective post-emergence action on crop (test method 4). It counts as in vivo, Hordeum vulgare, summer barley. As to conditions: g of AS/ha: (A) 120, (B) 1200, (C) 120, mixture 120 + 1200 + 120. On the procedure:
as §1
(§5) About 3 weeks after the application, the soil action or/and foliar action was assessed visually according to a scale of 0-100% in comparison to an untreated comparative group: 0%=no noticeable effect compared to the untreated comparative group; 100%=full effect compared to the untreated comparative group. […]

Data set [5] concerns AVEFA. Description: Greenhouse trial, pre-sowing application 7 days prior to sowing (test method 5). It counts as in vivo, Avena fatua. As to conditions: g of AS/ha: (A) 90, (B) 1200, (C) 90, mixture 90 + 1200. On the procedure:
as §1, §5

Data set [6] has as its system HORVS. Nature of the data set: Greenhouse trial, PE application, selective pre-emergence action on crop (test method 3). It counts as in vivo, Hordeum vulgare, summer barley. To be noted: g of AS/ha: (A) 90, (B) 1200, (C) 90, mixture 90 + 1200. As for the experimental part: as §1, §5
In data set [7] the test system is HORVS. Nature of the data set: Greenhouse trial, activity with different soil types. To be noted: g of AS/ha: (A) 120, (B) 1200, (C) 90, mixture 120 + 1200 + 90. It counts as in vivo, Hordeum vulgare, summer barley. On the procedure: as §1, §2
(notes: the term “seeds” also includes vegetative propagation forms such as, for example, rhizome pieces; abbreviations used: h light=hours of illumination, g of AS/ha=gram of active substance per hectare, l/ha=liter per hectare, S=sensitive, R=resistant) • 1. Pre-emergence action against weeds: seeds of various broad-leaved weed and weed grass biotypes (origins) were sown in a 8-13 cm diameter pot filled with natural soil of a standard field soil (loamy silt; non-sterile) and covered with a covering soil layer of about 1 cm. The pots were then cultivated in a greenhouse (12-16 h of light, temperature day 20-22° C., night 15-18° C.) until the time of application. The pots were treated at the BBCH stage 00-10 of the seeds/plants on a laboratory track sprayer with spray liquors comprising the compositions according to the invention, mixtures or components used individually, as WG, WP, EC or other formulations. The application rate for the spray application was 100-600 l of water/ha. After the treatment, the plants were returned to the greenhouses and, when required, treated with fertilizer and watered. • 2. Post-emergence action against weeds: seeds of various broad-leaved weed and weed grass biotypes (origins) were sown in a 8-13 cm diameter pot filled with natural soil of a standard field soil (loamy silt; non-sterile) and covered with a covering soil layer of about 1 cm. The pots were then cultivated in a greenhouse (12-16 h of light, temperature day 20-22° C., night 15-18° C.) until the time of application. The pots were treated at various BBCH stages between 11-25 of the seeds/plants, i.e. generally between two to three weeks after the start of the cultivation, on a laboratory track sprayer with spray liquors comprising the compositions according to the invention, mixtures or components used individually, as WG, WP, EC or other formulations. The application rate for the spray application was 100-600 l of water/ha. After the treatment, the plants were returned to the greenhouses and, when required, treated with fertilizer and watered. • 3. […]

For data set [8], the system named is HORVS. Description: Greenhouse trial, pre-sowing application 7 days prior to sowing (test method 5). Type of data set: in vivo, Hordeum vulgare, summer barley. As to conditions: g of AS/ha: (A) 90, (B) 1200, (C) 90, mixture 90 + 1200. On the procedure: as §1, §5
Data set [9] relates to TRZAW. Description: Greenhouse trial, PE application at different sowing depths (test method 9). To be noted: g of AS/ha: (A) 120, (B) 1200, (C) 90, mixture 90 + 1200 + 90. Type of data set: in vivo, Triticum aestivum, winter wheat. As for the experimental part: as §1, §2, §3

The structures appear in SMILES notation.

On to `O=C(Nc1ccc(F)cc1F)c1cccnc1Oc1cccc(C(F)(F)F)c1` [(C) diflufenican, N-(2,4-difluorophenyl)-2-[3-(trifluoromethyl)phenoxy]-3-pyridinecarboxamide], for which the results for the “activity on crop plant TRZAS (visual, scale 0-100%)” value in data set [1] (irrigation from above) and in [1] (irrigation from below) were 10% and 0%, respectively. Also, in data set [2], the “Difference of the soil types, STEME” value is given as −57%. In data set [3], the “activity ALOMY resistant (visual, scale 0-100%)” value was found to be 30%. Besides, the “activity ALOMY sensitive (visual, scale 0-100%)” value in [3] was 30%. Moreover, the “activity on crop plant HORVS (visual, scale 0-100%)” value in [4] was 5%; in [6] it was 5%; in data set [8] it was 30%. For the same compound, in data set [5], the “activity AVEFA (visual, scale 0-100%)” value was 0%. In addition, the “activity on crop plant HORVS IU soil (visual, scale 0-100%)” value in [7] (IU soil) was 0%. Moreover, the “activity on crop plant HORVS IU/EC73 soil (visual, scale 0-100%)” value in data set [7] (IU/EC73 soil) amounted to 0%. Besides, in data set [9] (sowing depth 5 mm), the “activity on crop plant TRZAW 5 mm (visual, scale 0-100%)” value came to 20%. The “activity on crop plant TRZAW 20 mm (visual, scale 0-100%)” value in [9] (sowing depth 20 mm) is given as 20%.

`COc1nc(C)nc(NC(=O)NS(=O)(=O)c2cc(I)ccc2C(=O)O)n1` [C)^1 iodosulfuron, iodosulfuron]: in [3], the “activity ALOMY resistant (visual, scale 0-100%)” value turned out to be 50% and the “activity ALOMY sensitive (visual, scale 0-100%)” value was 98%.

(Values after US20110152092A1, “Herbicidal compositions comprising flufenacet” (Bayer CropScience AG, priority 2009, published 2011).)
